Laboratory results as given in patent publication US20230346988A1, “SYSTEMS FOR IN VIVO MONITORING OF IMMUNE CELLS IN PATIENTS UNDERGOING CELLULAR IMMUNOTHERAPY” (Memorial Sloan Kettering Cancer Center, priority 2020, published 2023).

Tested on: antitumor/anti-DOTA IgG-scFv
Experiment: Affinity measurement of DOTA-PEG6 Biotin by surface plasmon resonance (Biacore)
Conditions: SA chip coated with DOTA-PEG6 Biotin, 1:1 binding model
Text: Affinity measurement of […] by Surface Plasmon Resonance (Biacore). sBiacore T-100 Biosensor, streptavidin (SA) sensor chip, and related reagents were purchased from GE Healthcare. The SA chip coated with […] and then flowed over with an antitumor/anti-DOTA IgG-scFv. The KDs were generated from a sensorgram data series consisting of 6 concentrations of anti-tumor/anti-DOTA IgG-scFv, by fitting to a 1:1 binding model using the Biacore T-100 evaluation software.

Kd (6 concentrations of IgG-scFv): 0.0686 nM
kd (6 concentrations of IgG-scFv): 5.05e-05 s⁻¹
Structure (SMILES): O=C(O)CN1CCN(CC(=O)O)CCN(CC(=O)O)C(Cc2ccc(NC(=S)NCCOCCOCCOCCOCCOCCOCCNC(=O)CCCCC3SC[C@@H]4NC(=O)N[C@H]34)cc2)CN(CC(=O)O)CC1 (stereo partly shown) [DOTA-PEG6 Biotin]
t½: 3.811 h
ka (6 concentrations of IgG-scFv): 736000 M⁻¹ s⁻¹
